# Assay results: patent publication US20240100164A1, “REPEATED PHOTODYNAMIC THERAPY USING PHOTOSENSITIZING AGENT” (Incando Therapeutics Pte. Ltd., priority 2022, published 2024)
# “And” between values parts separate entries of the source, which are not always exact repeats. Equal entries are not always repeated.
# Columns and labels:
# [1] = system: glioma cells; test: In vitro 3D hydrogel culture, PDT induced cell death of glioma cells; format: cell-based; conditions: glioma cells in 3D-hydrogel incubated with 5-ALA, illuminated with LED at 630 nm
# Source text: An in vitro model of light penetration into tissue was established to determine the quantitative relationship between light penetrance PDT instigated cell death. The primary parameters for light input are illumination intensity and duration of illumination. The primary parameter for PDT instigated cell death is depth (or distance from the light source to the target treatment tissue), which directly attenuates light penetration into tissue.
# To evaluate PDT for treatment of gliomas and brain cancers glioma cells were propagated in a hydrogel medium in a three-dimensional (3D) culture to mimic the cellular and optical environment of the brain. A commercial 3D culture system was used to set up the culture in a linear configuration such that a point source of light could be applied to one end of a closed culture in a cylinder form. The total cellular growth volume was 1 mm×1 mm×15 mm. A 630 nm LED light source that mimics the spectral characteristics and intensity of the any of the implantable devices disclosed herein was used to illuminate embedded glioma cells and to establish the effective PDT “kill radius.”
# FIGS. 9A-9B show PDT induced cell death of glioma cells using a LED light source such as any of those disclosed herein. Glioma cells were embedded in a 3D-hydrogel, incubated with study drug 5-ALA, and illuminated with a light from a LED at 630 nm as shown in FIG. 9A. […]
# [2] = system: C6 glioma; test: Orthotopic C6 glioma xenograft, 5-ALA uptake and conversion to PPIX in tumor; format: in vivo, Sprague Dawley rat; conditions: C6 tumor in rat striatum, histology
# Procedure: C6 rat glioma cells were maintained in F12K medium (F-12K Nutrient Mixture, 1X, Gibco) supplemented with […] (Biowest), […] (Gibco), and 1% each of P/S and L/G antibiotics (Biowest) at 37° C. in a humidified incubator containing 5% CO2. Subconfluent, low passage C6 glioma cells were resuspended to single cell suspension in sterile PBS (1X, Hyclone) within two hours of xenotransplantation.
# Approximately 2×10^5 cells were stereotactically injected into the striatum of rats (230-270 g, InVivos Pte Ltd) under general anaesthesia. Using a hand-held drill, a burr hole of 1 mm was drilled and cells were injected unilaterally at 3 mm lateral to Bregma and at a depth of 4 mm. Injections were conducted using borosilicate capillary glass micropipettes (A-M Systems) pulled to a tip diameter of ˜[…]. Animals were allowed to recover with daily antibiotics and analgesics for up to a week and monitored post operatively for adverse events and signs of distress in compliance with relevant animal treatment guidelines.
# FIG. 10 illustrates an orthotopic xenograft model. Rat C6 glioma cells are implanted unilaterally into the striatum of Sprague Dawley rats. Tumor engraftment and growth was rapid and morphology is consistent with human high grade gliomas.
# [3] = system: C6 glioma; test: Single application of PDT in orthotopic C6 glioma model (Ki67, TUNEL histology); format: in vivo, Sprague Dawley rat
# Procedure: (§1) The implants were secured in place by suturing the overlying skin to close the surgical site. Device operation was tested briefly before closure. Six hours prior to each PDT treatment, rats were injected with 100 mg/kg 5-ALA (Synchem UG & Co. KG) prepared in sterile PBS (1X, Hyclone) via tail vein or with a vehicle control. PDT treatment was conducted under 1.5-2.5% […] isoflurane/O2 general anesthesia. Wireless powering coils such as those disclosed herein were secured to each animal's head, and each PDT treatment delivered 2.5 mW/cm2 of light over 3,600 seconds for a total fluence of 9 J/cm^2 per treatment. Any of the other treatment parameters disclosed herein may be used.
# Test animals were sacrificed after 24 hours, and their brains were sectioned for histological examination. The proliferation marker Ki67 and the TUNEL assay (terminal deoxynucleotidyl transferase dUTP nick end labeling) indicative of apoptosis was used to quantify the PDT effect.
# Test animals were sacrificed after 24 hours, and their brains were sectioned for histological examination. The proliferation marker Ki67 and the TUNEL assay indicative of apoptosis was used to quantify the PDT effect.
# [4] = system: C6 glioma; test: Single vs. repeated PDT (rePDT) in orthotopic C6 glioma model, survival and tumor size; format: in vivo, Sprague Dawley rat
# Source text: Animals were monitored daily for weight change and behavioral abnormalities ahead of xenograft induced mortality. Ethical termination via CO2 overdose was triggered in the following events: individual weight loss of greater than 20% in one day, extended cessation of motor behavior and loss of grooming; paralysis and lack of movement/lying on a side. After termination or death, individual rat brains were dissected and prepared for histological analysis by freezing in OCT compound (Tissue-Tek). Survival analysis was performed via the method of Kaplan-Meier.
# as §1
# Further experimentation was conducted to determine if repeated application of PDT treatment would have a cumulative effect on tumor growth and disease progression. […] If a single PDT treatment was at least 50% effective in destroying the tumor population, an inter-treatment interval of 2 days would maintain or diminish the tumor graft to at, or near starting levels. With this rationale in mind, PDT treatment was applied according to the schema shown in FIG. 12A with four treatments repeated every two days starting at day 4 after xenograft surgery.
# On the day of treatment, animals received 5-ALA via tail vein injection and allowed to recover for 6 hours to allow uptake and expression of PPIX. PDT treatment was conducted under light general anaesthesia via halothane to reduce movement during PDT. […] This procedure was repeated at 2-day intervals for a total of four treatments.
# FIG. 13 also illustrates survival curves for single vs repeat PDT treated animals. Sprague Dawley rats were implanted with c6 glioma cells and implanted with a wirelessly powered light source above the injection site as described. On treatment days (days 4, 6, 8, 10), animals were given the study drug 5-ALA as described and received PDT treatment. […] In contrast, 7 of 8 cohort 2 animals, which received PDT treatment on days 4, 6, 8, and 10, survived to day 70 at which point the experiment was stopped. Therefore, rePDT kills more of the tumor compared with a single treatment of PDT and increases survival time of the rodents.
# [5] = in vivo; cited from earlier work
smiles,measurement,setting,value
"Cl.NCC(=O)CCC(=O)O [5-ALA, 5-amino-4-oxo-pentanoic acid hydrochloride]","effective ""kill zone"" (distance from the light source)",[1],6-8 mm
same,PPIX signal in the tumor (conversion of 5-ALA to PPIX),[2],Strong PPIX signal
same,tumor uptake of photosensitizer,[2],takes up the photosensitizer drug 5-ALA
same,PDT effect (Ki67 and TUNEL),"[3]; 100 mg/kg 5-ALA tail vein 6 h before wirelessly powered light, 9 J/cm^2, sacrificed after 24 hours",able to induce PDT
same,PDT effect (Ki67 and TUNEL),[3]; either component singly (5-ALA without light),did not show the same effect
same,adverse effects after PDT treatment,"[4]; 5-ALA tail vein 6 hours before PDT under general anaesthesia, four treatments at 2-day intervals",no adverse effects
same,mean survival,"[4]; Cohort 1, PDT treatment only on day 4 (n=10)",~22 days
same,time of mortality,[4]; control animals (control treatment = single PDT session),22 to 24 days
same,tumor size,"[4]; control animals (control treatment = single PDT session), necropsy",125-200 mm^3
same,median survival,"[4]; control animals (n=10), Kaplan-Meier",21 days
same,animals living at the end of the experiment,[4]; rePDT,89%
same,tumor cells by H&E staining,"[4]; rePDT animals, histology",trace amounts of tumor cells
same,Ki67 level,"[4]; rePDT animals, histology, vs contralateral controls",low levels of Ki67
same,reduction in the tumor volume,"[4]; rePDT vs control animals, gross estimates",> 99.5%
same,animals living at the end of the experiment (day 70),"[4]; rePDT, PDT on days 4, 6, 8, 10, hydrochloride",8 out of 9 and 7 of 8
same,survival (day of termination of experiment),"[4]; repeated PDT (rePDT), four treatments every two days from day 4",≥ 70 days
"C=CC1=C(C)c2cc3[nH]c(cc4nc(cc5[nH]c(cc1n2)c(C)c5CCC(=O)O)C(CCC(=O)O)=C4C)c(C)c3C=C [PPIX, Protoporphyrin IX]",systemic clearance time of 5-ALA-induced PPIX,[5],≤ 24 h
